Assay results from US20130150327A1, “COMPOSITION FOR PREVENTING HAIR LOSS OR STIMULATING HAIR GROWTH” (Biopid Corporation, priority 2010, published 2013).

Experiments:
C3H/HeNCrljBgi mice = assay: Animal Test 3: organic acid effect and soy extracted phospholipid effect, hair growth area; assay type: in vivo, mouse; settings: 2.5 weeks, twice a day, phospholipids 20 mg/ml, minoxidil 5% applied to all groups except Group 1 30 minutes before the composition
Protocol: In addition, the composition was prepared by using soy lecithin (phospholipid extracted from soy, #86015-1201, Junsei Chemical, Japan), and then effect of the composition on hair growth was compared. C3H/HeNCrljBgi species of 7 ages of weeks (Orient Bio, Sungnam, Korea) were purchased as the experimental mice, and then used for the test. […] The composition of the present invention was applied for 2.5 weeks, and 60 ml of the composition was applied on the backs of the hairs-removed mice twice a day. The concentration of the applied phospholipids was 20 mg/ml. As a measurement of hair growth in the mice, the pictures of the mice of each experimental group were taken, respectively, and then the ratio of the hair growth area in the hairs-removed area was calculated.

[1] = test system: mice with DNFB-induced allergic dermatitis; assay: Animal Test 1: hair follicle growth in back skin tissue of mice with DNFB-induced allergic dermatitis; assay type: in vivo, mouse; settings: comparators: Tacrolimus ointment (FIG. 5), 0.1% dexamethasone in ethanol (FIG. 6), twice a day, 10 days
Description: In order to prepare animal models with an atopic dermatitis, or a contact dermatitis and allergic dermatitis, After 1 week of sensitizing with DNFB, DNFB was applied to the backs of mice total 10 times per 2 weeks to induce an artificial allergic dermatitis. […] Since applying DNFB five times, the composition of the present invention, Tacrolimus ointment (trade name, Protopic, Astella Pharma Korea, Inc.), and dexamethasone (Sigma Chem. Co. USA, 0.1% solution dissolved in ethanol) were applied to the backs of mice occurred with inflammation twice a day in the amount of 60 ml, respectively. At 10 days after applying, the mice tissues were collected to test experiments.

SMILES | Hair growth area (ratio of the hair growth area in the hairs-removed area) (C3H/HeNCrljBgi mice) | hair follicle growth in mice tissues [1]
Nc1cc(N2CCCCC2)nc(N)[n+]1[O-] [Minoxidil, minoxidil] | 10.2 | –
C=CC[C@@H]1/C=C(\C)C[C@H](C)C[C@H](OC)[C@H]2O[C@@](O)(C(=O)C(=O)N3CCCC[C@H]3C(=O)O[C@H](/C(C)=C/[C@@H]3CC[C@@H](O)[C@H](OC)C3)[C@H](C)[C@@H](O)CC1=O)[C@H](C)C[C@@H]2OC [Tacrolimus, tacrolimus] | – | new hair follicles were formed
